Measured values reported in patent publication US20170291958A1, “Compositions and Methods For the Modulation of Ras Proteins” (NEW YORK UNIVERSITY, priority 2016, published 2017).
“Also recorded” adds a separate entry of the source.

Tests used:
Format in all cases: cell-based
[1] = system: MiaPaCa-2 cells; test: Wound-healing assay, MiaPaCa-2 cells; conditions: MiaPaCa-2 cells (KRASV12), various concentrations, 18 h (FIG. 7B, 7D)
Procedure: (§1) FIGS. 7A-7E. SUMO inhibitor blocks migration of pancreatic cancer cells with KRASV12 mutation. (FIG. 7A) MiaPaCa-2 cells transfected with various KRAS expression constructs or the vector as indicated for 24 h. A GFP-expressing plasmid was used for co-transfection. Transfected cells were then used for wound-healing assays as described in Methods. Representative images of the assay and GFP expression are shown. (FIG. 7B) Both BxPC-3 and MiaPaCa-2 cells were employed for wound-healing assays. Cells with open scratches were treated with various concentrations of 2-D08 for 18 h. Representative images of cells before and after recovery in the presence of 2-D08 for 18 h are shown. (FIG. 7C & FIG. 7D) Data were summarized from experiments as shown in A and B, respectively. (FIG. 7E) MiaPaCa-2 cells treated with or without 2-D08 were lysed and equal amounts of cell lysates were blotted with antibodies to N-Cadherin, ZEB1/TCF8, ZO-1, PARP-1 and B-actin, respectively.
(§2) RAS proteins were the first, and remain the best-studied, oncoproteins. However, to date no compounds that target RAS have been approved for clinic applications for cancer treatment. As a proof-of-principle study, we next determined whether 2-D08 that blocks RAS sumoylation (FIG. 2A) would suppress tumor cell migration in a KRAS-dependent manner. […]

[2] = system: BxPC-3 cells; test: Wound-healing assay, BxPC-3 cells; conditions: BxPC-3 cells that harbor no KRAS mutation, various concentrations, 18 h (FIG. 7B, 7D)
Procedure: as §1, §2

[3] = system: KRAS sumoylation; test: KRAS sumoylation in transfected MiaPaCa-2 cells (Flag immunoprecipitation, HA blot); conditions: MiaPaCa-2 cells transfected with Flag-KRAS and HA-SUMO3, treated 18 h (FIG. 2A)
Procedure: FIGS. 2A-2E. Lysine 42 is a primary site for sumoylation. (FIG. 2A) MiaPaCa-2 cells were transfected with Flag-KRAS and HA-SUMO3 expression constructs for 24 h and then treated with or without 2-D08 for 18 h. Cells were then lysed and equal amounts of the lysates were immunoprecipitated with the anti-Flag antibody. Flag precipitates, along with lysate inputs, were blotted with antibodies to HA and Flag, respectively. (FIG. 2B) HEK293T cells were co-transfected with plasmid constructs expressing Flag-KRAS, HA-SUMO3, and SENP isoforms as indicated. Equal amounts of protein lysates were immunoprecipitated with the anti-Flag antibody. Flag immunoprecipitates were immunoblotted with antibodies to Flag or HA. […]
Total cell lysates were prepared in a buffer [50 mM Tris-HCl (pH 7.5), 150 mM NaCl, 1% IGEPAL, 0.1% SDS, and 0.5% sodium deoxycholate] supplemented with a mixture of protease and phosphatase inhibitors. […] Protein concentrations were measured using the bicinchoninic acid protein assay reagent kit (Pierce Chemical Co). […]
HEK-293T cells were lysed in TBSN buffer [20 mM Tris-Cl (pH 8.0), 150 mM NaCl, 0.5% NP-40, 5 mM EGTA, 1.5 mM EDTA, 0.5 mM Na3VO4, and […]-Glycerol phosphate]. […] After incubation, proteins bound to each resin were washed extensively with the binding buffer, eluted in the SDS-PAGE sample buffer, and analyzed by SDSPAGE.

[4] = system: ZEB1/TCF8, ZO-1 expression in MiaPaCa-2 cells; test: Immunoblot of migration/EMT gene products in MiaPaCa-2 cells
Procedure: as §1
RAS proteins were the first, and remain the best-studied, oncoproteins. However, to date no compounds that target RAS have been approved for clinic applications for cancer treatment. As a proof-of-principle study, we next determined whether 2-D08 that blocks RAS sumoylation (FIG. 2A) would suppress tumor cell migration in a KRAS-dependent manner.
Total cell lysates were prepared in a buffer [50 mM Tris-HCl (pH 7.5), 150 mM NaCl, 1% IGEPAL, 0.1% SDS, and 0.5% sodium deoxycholate] supplemented with a mixture of protease and phosphatase inhibitors. HEK293T Tet-on cells were engineered to express KRASV12 or KRASV12/42R mutants in the presence of doxycycline. At various times post addition of doxycycline, cells were collected and lysed in the same buffer as above. Protein concentrations were measured using the bicinchoninic acid protein assay reagent kit (Pierce Chemical Co). Equal amounts of protein lysates from various samples were used for SDS-PAGE analysis followed by immunoblotting. […]

[5] = MiaPaCa-2 cells, immunoblot (FIG. 7E)

O=c1cc(-c2ccc(O)c(O)c2O)oc2ccccc12 [2-D08, 2-(2,3,4-Trihydroxyphenyl)-4H-chromen-4-one]
cell migration (wound healing) [1]: blocked MiaPaCa-2 cell migration in a concentration-dependent manner; also recorded: reduces migration rate of pancreatic cancer cells with KRASV12 in a concentration-dependent manner
cell migration (wound healing) [2]: did not have an effect on inhibiting cell migration
KRAS sumoylation [3]: blocked KRAS sumoylation in a concentration-dependent manner
expression of ZEB1/TCF8 [4, 5]: suppressed expression of ZEB1/TCF8
expression of ZO-1 [4, 5]: promoted expression of ZO-1
expression of genes involved in EMT ([4]; pancreatic cancer cells with KRASV12 (FIG. 7)): suppresses expression of genes involved in EMT
